{"source": "PubChem BioAssay AID1963960", "about": "(Molecular Pharmacology Branch, DTP, NCI, 2024)", "test_system": "MDA-MB-468 spheroids with HUVEC/MSC, viability", "test": "Anticancer human tumor MDA-MB-468 cell line growth inhibition [PI3K];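 for all read-outs here: spheroids exposed to agents for seven days before readout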;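 for viability, T/C: 100% = DMSO vehicle control viability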", "conditions": "for IC50: curve of first compound; for viability, T/C: stronger effect = lower value", "procedure,_shortened": "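High-throughput combination screen: PI3K inhibitors crossed with targeted small molecules on complex spheroids of tumor cells, HUVEC and MSCs at 37 degrees C, 5% CO2. Top concentration was at or near clinical Cmax (otherwise 10 microM), with half-log decrements.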", "key": {"[1]": {"conditions": "second compound 0.0316 µM, first compound 0.0316 µM"}, "[2]": {"conditions": "second compound 0.0316 µM, first compound 0.1 µM"}, "[3]": {"conditions": "second compound 0.1 µM, first compound 0.0316 µM"}, "[4]": {"conditions": "second compound 0.1 µM, first compound 0.1 µM"}, "[5]": {"conditions": "second compound 0.316 µM, first compound 0.0316 µM"}, "[6]": {"conditions": "second compound 0.316 µM, first compound 0.1 µM"}, "[7]": {"conditions": "second compound 1 µM, first compound 0.0316 µM"}, "[8]": {"conditions": "second compound 1 µM, first compound 0.1 µM"}, "[9]": {"conditions": "second compound 3.16 µM, first compound 0.0316 µM"}, "[10]": {"conditions": "second compound 3.16 µM, first compound 0.1 µM"}, "[11]": {"conditions": "second compound 10 µM, first compound 0.0316 µM"}, "[12]": {"conditions": "second compound 10 µM, first compound 0.1 µM"}}}
{"smiles": "CC(C)n1nc(-c2ccc3oc(N)nc3c2)c2c(N)ncnc21", "note": "+ CC(Nc1ncnc2nc[nH]c12)c1cc2cccc(Cl)c2c(=O)n1-c1ccccc1", "values": [{"measurement": "IC50", "setting": "second compound 0.0316 µM", "result": 0.0419, "unit": "µM"}, {"measurement": "IC50", "setting": "second compound 0.1 µM", "result": 0.0345, "unit": "µM"}, {"measurement": "IC50", "setting": "second compound 0.316 µM", "result": 0.0379, "unit": "µM"}, {"measurement": "IC50", "setting": "second compound 1 µM", "result": 0.024, "unit": "µM"}, {"measurement": "IC50", "setting": "second compound 3.16 µM", "result": 0.0113, "unit": "µM"}, {"measurement": "IC50", "setting": "second compound 10 µM", "result": "< 0.000316", "unit": "µM"}, {"measurement": "viability, T/C", "setting": "second compound 0.0316 µM, first compound 0.000316 µM", "result": 81.5, "unit": "%"}, {"measurement": "viability, T/C", "setting": "second compound 0.0316 µM, first compound 0.001 µM", "result": 81.4, "unit": "%"}, {"measurement": "viability, T/C", "setting": "second compound 0.0316 µM, first compound 0.00316 µM", "result": 96.1, "unit": "%"}, {"measurement": "viability, T/C", "setting": "second compound 0.0316 µM, first compound 0.01 µM", "result": 82.2, "unit": "%"}, {"measurement": "viability, T/C", "setting": "[1]", "result": 60, "unit": "%"}, {"measurement": "viability, T/C", "setting": "[2]", "result": 19.5, "unit": "%"}, {"measurement": "viability, T/C", "setting": "second compound 0.1 µM, first compound 0.000316 µM", "result": 77.6, "unit": "%"}, {"measurement": "viability, T/C", "setting": "second compound 0.1 µM, first compound 0.001 µM", "result": 91.5, "unit": "%"}, {"measurement": "viability, T/C", "setting": "second compound 0.1 µM, first compound 0.00316 µM", "result": 77.9, "unit": "%"}, {"measurement": "viability, T/C", "setting": "second compound 0.1 µM, first compound 0.01 µM", "result": 66, "unit": "%"}, {"measurement": "viability, T/C", "setting": "[3]", "result": 54.4, "unit": "%"}, {"measurement": "viability, T/C", "setting": "[4]", "result": 19.8, "unit": "%"}, {"measurement": "viability, T/C", "setting": "second compound 0.316 µM, first compound 0.000316 µM", "result": 91.6, "unit": "%"}, {"measurement": "viability, T/C", "setting": "second compound 0.316 µM, first compound 0.001 µM", "result": 59.7, "unit": "%"}, {"measurement": "viability, T/C", "setting": "second compound 0.316 µM, first compound 0.00316 µM", "result": 77.4, "unit": "%"}, {"measurement": "viability, T/C", "setting": "second compound 0.316 µM, first compound 0.01 µM", "result": 73.8, "unit": "%"}, {"measurement": "viability, T/C", "setting": "[5]", "result": 55.2, "unit": "%"}, {"measurement": "viability, T/C", "setting": "[6]", "result": 17.4, "unit": "%"}, {"measurement": "viability, T/C", "setting": "second compound 1 µM, first compound 0.000316 µM", "result": 69.3, "unit": "%"}, {"measurement": "viability, T/C", "setting": "second compound 1 µM, first compound 0.001 µM", "result": 68.4, "unit": "%"}, {"measurement": "viability, T/C", "setting": "second compound 1 µM, first compound 0.00316 µM", "result": 64.1, "unit": "%"}, {"measurement": "viability, T/C", "setting": "second compound 1 µM, first compound 0.01 µM", "result": 57, "unit": "%"}, {"measurement": "viability, T/C", "setting": "[7]", "result": 49.6, "unit": "%"}, {"measurement": "viability, T/C", "setting": "[8]", "result": 15.8, "unit": "%"}, {"measurement": "viability, T/C", "setting": "second compound 3.16 µM, first compound 0.000316 µM", "result": 50.2, "unit": "%"}, {"measurement": "viability, T/C", "setting": "second compound 3.16 µM, first compound 0.001 µM", "result": 54.8, "unit": "%"}, {"measurement": "viability, T/C", "setting": "second compound 3.16 µM, first compound 0.00316 µM", "result": 57.4, "unit": "%"}, {"measurement": "viability, T/C", "setting": "second compound 3.16 µM, first compound 0.01 µM", "result": 50.9, "unit": "%"}, {"measurement": "viability, T/C", "setting": "[9]", "result": 36.2, "unit": "%"}, {"measurement": "viability, T/C", "setting": "[10]", "result": 13.2, "unit": "%"}, {"measurement": "viability, T/C", "setting": "second compound 10 µM, first compound 0.000316 µM", "result": 41.5, "unit": "%"}, {"measurement": "viability, T/C", "setting": "second compound 10 µM, first compound 0.001 µM", "result": 39.7, "unit": "%"}, {"measurement": "viability, T/C", "setting": "second compound 10 µM, first compound 0.00316 µM", "result": 38.8, "unit": "%"}, {"measurement": "viability, T/C", "setting": "second compound 10 µM, first compound 0.01 µM", "result": 40, "unit": "%"}, {"measurement": "viability, T/C", "setting": "[11]", "result": 26.4, "unit": "%"}, {"measurement": "viability, T/C", "setting": "[12]", "result": 9.66, "unit": "%"}]}
{"smiles": "CC1(C)CCC(CN2CCN(c3ccc(C(=O)NS(=O)(=O)c4ccc(NCC5CCOCC5)c([N+](=O)[O-])c4)c(Oc4cnc5[nH]ccc5c4)c3)CC2)=C(c2ccc(Cl)cc2)C1", "note": "+ CC(Nc1ncnc2nc[nH]c12)c1cc2cccc(Cl)c2c(=O)n1-c1ccccc1", "values": [{"measurement": "IC50", "setting": "second compound 0.0316 µM", "result": 4.8, "unit": "µM"}, {"measurement": "IC50", "setting": "second compound 0.1 µM", "result": 4.53, "unit": "µM"}, {"measurement": "IC50", "setting": "second compound 0.316 µM", "result": 4.3, "unit": "µM"}, {"measurement": "IC50", "setting": "second compound 1 µM", "result": 3.73, "unit": "µM"}, {"measurement": "IC50", "setting": "second compound 3.16 µM", "result": 0.0316, "unit": "µM"}, {"measurement": "IC50", "setting": "second compound 10 µM", "result": "< 0.0316", "unit": "µM"}, {"measurement": "viability, T/C", "setting": "[1]", "result": 90.5, "unit": "%"}, {"measurement": "viability, T/C", "setting": "[2]", "result": 84.6, "unit": "%"}, {"measurement": "viability, T/C", "setting": "second compound 0.0316 µM, first compound 0.316 µM", "result": 87, "unit": "%"}, {"measurement": "viability, T/C", "setting": "second compound 0.0316 µM, first compound 1 µM", "result": 87.4, "unit": "%"}, {"measurement": "viability, T/C", "setting": "second compound 0.0316 µM, first compound 3.16 µM", "result": 69.9, "unit": "%"}, {"measurement": "viability, T/C", "setting": "second compound 0.0316 µM, first compound 10 µM", "result": 15.2, "unit": "%"}, {"measurement": "viability, T/C", "setting": "[3]", "result": 83.8, "unit": "%"}, {"measurement": "viability, T/C", "setting": "[4]", "result": 82.2, "unit": "%"}, {"measurement": "viability, T/C", "setting": "second compound 0.1 µM, first compound 0.316 µM", "result": 79.6, "unit": "%"}, {"measurement": "viability, T/C", "setting": "second compound 0.1 µM, first compound 1 µM", "result": 76.1, "unit": "%"}, {"measurement": "viability, T/C", "setting": "second compound 0.1 µM, first compound 3.16 µM", "result": 65.1, "unit": "%"}, {"measurement": "viability, T/C", "setting": "second compound 0.1 µM, first compound 10 µM", "result": 18.3, "unit": "%"}, {"measurement": "viability, T/C", "setting": "[5]", "result": 76.5, "unit": "%"}, {"measurement": "viability, T/C", "setting": "[6]", "result": 68.5, "unit": "%"}, {"measurement": "viability, T/C", "setting": "second compound 0.316 µM, first compound 0.316 µM", "result": 78, "unit": "%"}, {"measurement": "viability, T/C", "setting": "second compound 0.316 µM, first compound 1 µM", "result": 68.8, "unit": "%"}, {"measurement": "viability, T/C", "setting": "second compound 0.316 µM, first compound 3.16 µM", "result": 62.6, "unit": "%"}, {"measurement": "viability, T/C", "setting": "second compound 0.316 µM, first compound 10 µM", "result": 17.2, "unit": "%"}, {"measurement": "viability, T/C", "setting": "[7]", "result": 58.9, "unit": "%"}, {"measurement": "viability, T/C", "setting": "[8]", "result": 65, "unit": "%"}, {"measurement": "viability, T/C", "setting": "second compound 1 µM, first compound 0.316 µM", "result": 69.9, "unit": "%"}, {"measurement": "viability, T/C", "setting": "second compound 1 µM, first compound 1 µM", "result": 72.2, "unit": "%"}, {"measurement": "viability, T/C", "setting": "second compound 1 µM, first compound 3.16 µM", "result": 55.8, "unit": "%"}, {"measurement": "viability, T/C", "setting": "second compound 1 µM, first compound 10 µM", "result": 15.5, "unit": "%"}, {"measurement": "viability, T/C", "setting": "[9]", "result": 50, "unit": "%"}, {"measurement": "viability, T/C", "setting": "[10]", "result": 46.9, "unit": "%"}, {"measurement": "viability, T/C", "setting": "second compound 3.16 µM, first compound 0.316 µM", "result": 47.2, "unit": "%"}, {"measurement": "viability, T/C", "setting": "second compound 3.16 µM, first compound 1 µM", "result": 49.4, "unit": "%"}, {"measurement": "viability, T/C", "setting": "second compound 3.16 µM, first compound 3.16 µM", "result": 50.5, "unit": "%"}, {"measurement": "viability, T/C", "setting": "second compound 3.16 µM, first compound 10 µM", "result": 13.8, "unit": "%"}, {"measurement": "viability, T/C", "setting": "[11]", "result": 38.4, "unit": "%"}, {"measurement": "viability, T/C", "setting": "[12]", "result": 30.9, "unit": "%"}, {"measurement": "viability, T/C", "setting": "second compound 10 µM, first compound 0.316 µM", "result": 39, "unit": "%"}, {"measurement": "viability, T/C", "setting": "second compound 10 µM, first compound 1 µM", "result": 42.5, "unit": "%"}, {"measurement": "viability, T/C", "setting": "second compound 10 µM, first compound 3.16 µM", "result": 32.3, "unit": "%"}, {"measurement": "viability, T/C", "setting": "second compound 10 µM, first compound 10 µM", "result": 15.4, "unit": "%"}]}
